Experimental data reported in patent US5919769A, “Fucose derivatives, drugs containing the same as active ingredient, and intermediates for producing the same” (Kanebo, Ltd, priority 1995, dated 1999).
Where a name gives a salt, the structure may show the parent alone.

Experiments:
[1] = target: P-selectin; test: Inhibitory test on the binding of P-selectin to sialyl Le^X (selectin-IgG chimera); conditions: inhibition of P-selectin IgG chimera binding to sialyl Le^X-pentaceramide
Procedure: Inhibitory test on the binding of P-selectin to sialyl Le^X :
(§1) The experiment was carried out according to the method using selectin-IgG chimera, which was reported by Foxall, C. et al. (J. Cell Biol., 117, 895-902 (1992)).
(§2) Sialyl Le^X -pentaceramide was dissolved in 50% methanol in distilled water, and the solution was put into a 96-well plate in an amount of 100 pmol/well. The plate was allowed to stand at room temperature overnight, and the solvent therein was evaporated. The plate was washed with distilled water, and subjected to blocking with 50 mM imidazole buffer (pH 7.2) containing 5% BSA (bovine serum albumin) and 1 mM calcium chloride at room temperature for one hour.
(§3) Separately, to 500-fold diluted solution of each biotinylated anti-human IgG Fc and streptavidin-alkaline phosphatase conjugate with a 50 mM imidazole buffer (pH 7.2) containing 1% BSA and 1 mM calcium chloride, P-selectin IgG chimera was added to give a final concentration of 40 μg/ml, and the mixture was incubated at room temperature for 30 minutes to give the complex solution.
(§4) A test compound was dissolved in DMSO (except that the test compound h was dissolved in distilled water) to give 10 mM aqueous solution thereof, which was serially diluted with 50 mM imidazole buffer (pH 7.2) containing 1% BSA and 1 mM calcium chloride to give the solutions in 8 various concentrations (two-fold serial dilution from 20 μM). The test compound solution in each concentration and the above complex solution were mixed in equal volume, and the mixture was incubated at room temperature for 30 minutes to give the reaction solution.
(§5) After the blocking was completed, the blocking solution in the above plate was discarded, and the plate was washed with 50 mM imidazole buffer (pH 7.2), and thereto was added the above reaction solution in an amount of 50 μl/well. The plate was incubated at 37° C. for 45 minutes, and then washed three times with 50 mM imidazole buffer (pH 7.2) and washed three times with distilled water. 1M diethanolamine (pH 9.8) containing 0.01% magnesium chloride and 1 mg/ml p-nitrophenyl phosphate was put into each well in an amount of 50 μl/well, and the plate was allowed to stand for 1 to 2 hours for color development. The absorbance at 405 nm was measured, and the binding rate (%) was calculated by the following equation, based on the absorbance (X) of the wells containing a test compound at various concentrations and the absorbance (A) of the wells containing no test compound.
(§6) IC50 was evaluated by probit method from the binding rate.

[2] = target: L-selectin; test: Inhibitory test on the binding of L-selectin to sialyl Le^X (selectin-IgG chimera); conditions: inhibition of L-selectin IgG chimera binding to sialyl Le^X-pentaceramide
Procedure: as §1, §2, §3, §4, §5, §6
Inhibitory test on the binding of L-selectin to sialyl Le^X :
The same procedures of Experiment 1 were repeated except that L-selectin IgG chimera (40 μg/ml) was used instead of P-selectin IgG chimera (40 μg/ml).

| Compound | IC50 ([1]; sodium salt) [nM] | IC50 ([2]; sodium salt) [nM] | IC50 [1] [nM] | IC50 [2] [nM] |
| --- | --- | --- | --- | --- |
| CCCCCCCCCCCCCCC(CCCCCCCCCCCCCC)C(=O)N[C@@H](CS[C@H]1O[C@@H](C)[C@@H](O)[C@@H](O)[C@@H]1O)C(=O)N[C@H](CCC(=O)O)C(=O)NC [compound u, [N-(2-tetradecylhexadecanoyl)-S-(β-L-fucopyranosyl)-L-cysteinyl]-D-glutamic acid 1-methylamide] |  |  | 1000 | 1000 |
| CCCCCCCCCCCCCCC(CCCCCCCCCCCCCC)C(=O)N[C@@H](CO[C@H]1O[C@@H](C)[C@@H](O)[C@@H](O)[C@@H]1O)C(=O)N[C@H](CCC(=O)O)C(=O)NC [compound n, [N-(2-tetradecylhexadecanoyl)-O-(β-L-fucopyranosyl)-L-seryl]-D-glutamic acid 1-methylamide] |  |  | 300 | 800 |
| CCCCCCCCCCCCCCC(CCCCCCCCCCCCCC)C(=O)N[C@@H](CO[C@@H]1O[C@H]([C@H](C)O)[C@@H](O)[C@@H]1O)C(=O)N[C@H](CCC(=O)O)C(=O)NC [compound b, [N-(2-tetradecylhexadecanoyl)-O-(α-L-fucofuranosyl)-L-seryl]-D-glutamic acid 1-methylamide] |  |  | 1000 | 1500 |
| CCCCCCCCCCCCCCC(CCCCCCCCCCCCCC)C(=O)N[C@H](CO[C@H]1O[C@@H](C)[C@@H](O)[C@@H](O)[C@@H]1O)C(=O)N[C@H](CCC(=O)O)C(=O)NC [compound p, [N-(2-tetradecylhexadecanoyl)-O-(β-L-fucopyranosyl)-D-seryl]-D-glutamic acid 1-methylamide] |  |  | 300 | 700 |

Results, then the molecule that gave them:

| IC50 ([1]; sodium salt) [nM] | IC50 ([2]; sodium salt) [nM] | IC50 [1] [nM] | IC50 [2] [nM] | Compound |
| --- | --- | --- | --- | --- |
| 1200 | 300 |  |  | CCCCCCCCCCCCCCC(CCCCCCCCCCCCCC)C(=O)N[C@@H](CO[C@@H]1O[C@H]([C@H](C)O)[C@@H](O)[C@@H]1O)C(=O)N[C@H](CCC(=O)O)C(=O)NC [compound h, [N-(2-tetradecylhexadecanoyl)-O-(α-L-fucofuranosyl)-L-seryl]-D-glutamic acid 1-methylamide sodium salt] |
|  |  | 2100 | 18000 | CCCCCCCCCCCCCCC(CCCCCCCCCCCCCC)C(=O)N[C@H](CO[C@@H]1O[C@@H](C)[C@@H](O)[C@@H](O)[C@@H]1O)C(=O)N[C@H](CCC(=O)O)C(=O)NC [compound l, [N-(2-tetradecylhexadecanoyl)-O-(α-L-fucopyranosyl)-D-seryl]-D-glutamic acid 1-methylamide] |
|  |  | 100 | 1700 | CCCCCCCCCCCCCCC(CCCCCCCCCCCCCC)C(=O)N[C@@H](CO[C@@H]1O[C@H]([C@H](C)O)[C@@H](O)[C@@H]1O)C(=O)N[C@H](CCC(=O)O)C(=O)Nc1ccccc1 [compound g, [N-(2-tetradecylhexadecanoyl)-O-(α-L-fucofuranosyl)-L-seryl]-D-glutamic acid 1-anilide] |
|  |  | > 500000 | > 500000 | CC(=O)N[C@H]1[C@H]([C@H](O)[C@H](O)CO)O[C@@](O[C@H]2[C@@H](O)[C@@H](CO)O[C@@H](O[C@@H]([C@H](O[C@@H]3O[C@@H](C)[C@@H](O)[C@@H](O)[C@@H]3O)[C@H](C=O)NC(C)=O)[C@H](O)CO)[C@@H]2O)(C(=O)O)C[C@@H]1O [compound X, Sialyl Le^X, reference compound] |
|  |  | 200 | 500 | CCCCCCCCCCCCCCC(CCCCCCCCCCCCCC)C(=O)N[C@H](CO[C@@H]1O[C@H]([C@H](C)O)[C@@H](O)[C@@H]1O)C(=O)N[C@H](CCC(=O)O)C(=O)NC [compound d, [N-(2-tetradecylhexadecanoyl)-O-(α-L-fucofuranosyl)-D-seryl]-D-glutamic acid 1-methylamide] |
|  |  | 300 | 600 | CCCCCCCCCCCCCCC(CCCCCCCCCCCCCC)C(=O)N[C@H](CS[C@@H]1O[C@@H](C)[C@@H](O)[C@@H](O)[C@@H]1O)C(=O)N[C@H](CCC(=O)O)C(=O)NC [compound t, [N-(2-tetradecylhexadecanoyl)-S-(α-L-fucopyranosyl)-D-cysteinyl]-D-glutamic acid 1-methylamide] |
